Results as given in patent US9550792B2, “Polycyclic substituted pyrazole kinase activity inhibitors and use thereof” (priority 2013, dated 2017).

Tests used:
[1] = target: T1, CDK2/A (Homo sapiens, UniProt P24941); experiment: Inhibitory activity to CDK2 (FRET); type: biochemical; conditions: for inhibition at 1 µM: read-out: CDK2 inhibition % (1 × 10^−6 mol/L)
T1 construct: purchased
Procedure: CDK2/A was purchased in the form of a kit or obtained through purification.
Procedures: CDK2/A is diluted to a suitable concentration with kinase diluent. The kinase reaction mixture contains CDK2/A, peptide substrate, HEPES (pH7.5), BRIJ-35, MgCl2 and EDTA. CDK2 phospho-peptide substrate is used as the control of 100% phosphorylation and ATP-free as the control of 0% phosphorylation. After 1 h, the diluted Development Reagent A is added into the reaction system. Then the reaction is allowed to proceed for 1 h and then quenched with Stop Reagent. […] The inhibitions of the tested compounds are calculated according to the formula.

[2] = target: T2, Aurora A (Homo sapiens, UniProt O14965); experiment: Inhibitory activity to Aurora A (FRET); type: biochemical; conditions: for inhibition at 1 µM: read-out: Aurora A inhibition % (1 × 10^−6 mol/L)
T2 construct: purchased
T2 sequence (O14965 1-403): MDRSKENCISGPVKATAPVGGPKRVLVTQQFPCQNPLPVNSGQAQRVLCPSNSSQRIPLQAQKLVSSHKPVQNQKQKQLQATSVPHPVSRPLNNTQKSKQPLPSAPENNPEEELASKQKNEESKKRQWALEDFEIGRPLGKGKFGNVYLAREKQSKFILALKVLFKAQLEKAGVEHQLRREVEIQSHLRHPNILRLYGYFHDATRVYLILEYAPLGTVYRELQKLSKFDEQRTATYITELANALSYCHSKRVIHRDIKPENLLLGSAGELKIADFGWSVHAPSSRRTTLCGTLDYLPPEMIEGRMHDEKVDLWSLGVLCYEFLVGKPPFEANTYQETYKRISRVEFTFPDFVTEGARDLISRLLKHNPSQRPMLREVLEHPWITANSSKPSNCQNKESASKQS
Procedure: The inhibitory activities of the synthesized compounds for Aurora A is determined by fluorescence resonance energy transfer (FRET) and were compared with the positive control drug so as to screen the compounds with better activities. Aurora A was purchased in the form of a kit or obtained through purification. Procedures: Aurora A is diluted to a suitable concentration with kinase diluent. The kinase reaction mixture contains Aurora A, peptide substrate, HEPES (pH7.5), BRIJ-35, MgCl2 and EDTA. Aurora A phospho-peptide substrate is used as the control of 100% phosphorylation and ATP-free as the control of 0% phosphorylation. After 1 h, the diluted Development Reagent A is added into the reaction system. Then the reaction is allowed to proceed for 1 h and then quenched with Stop Reagent. The excitation wavelength is 400 nm and the fluorescence intensity is detected at 445 nm (coumarin) and 520 nm (fluorescein). The inhibitions of the tested compounds are calculated according to the formula.

Row | Molecule | CDK2 inhibition % (1 × 10^−6 mol/L) [1] | Aurora A inhibition % (1 × 10^−6 mol/L) [2] | inhibition at 1 µM [1] | melting point | inhibition at 1 µM [2]
1 | O=C(Nc1ccc(CN2CCOCC2)cc1)c1n[nH]cc1Nc1ncnc2ccsc12 [Compound I-10, 4-(4-thieno[3,2-d]pyrimidinylamino)-N-(4-((4-morpholinyl)methyl)phenyl)-1H-3-pyrazolecarboxamide] | – | – | 56.2% | 275 to 277 °C | 54.9%
2 | Cc1csc2ncnc(Nc3c[nH]nc3C(=O)Nc3ccc(CN4CCOCC4)cc3)c12 [Compound I-6, 4-(4-(5-methylthieno[2,3-d]pyrimidinyl)amino)-N-(4-((4-morpholinyl)methyl)phenyl)-1H-3-pyrazolecarboxamide] | 60.68% | 54.80% | – | – | –
3 | Cc1cc2c(Nc3c[nH]nc3C(=O)Nc3ccc(CN4CCOCC4)cc3)ncnc2s1 [Compound I-4, 4-(4-(6-methylthieno[2,3-d]pyrimidinyl)amino)-N-(4-((4-morpholinyl)methyl)phenyl)-1H-3-pyrazolecarboxamide] | 52.73% | 64.46% | – | – | –
4 | Cc1sc2ncnc(Nc3c[nH]nc3C(=O)Nc3ccc(CN4CCN(C)CC4)cc3)c2c1C [Compound I-7, 4-(4-(5,6-dimethylthieno[2,3-d]pyrimidinyl)amino)-N-(4-((4-methyl-1-piperazinyl)methyl)phenyl)-1H-3-pyrazolecarboxamide] | 65.12% | 54.93% | – | – | –
5 | Cc1cc2c(Nc3c[nH]nc3C(=O)Nc3ccc(CN4CCOCC4)cc3)ncnc2[nH]1 [Compound I-14, 4-(4-(6-methyl-7H-pyrrolo[2,3-d]pyrimidinyl)amino)-N-(4-((4-morpholinyl)methyl)phenyl)-1H-3-pyrazolecarboxamide] | 65.78% | 66.26% | – | – | –
6 | 4-(7-(1H-pyrrolo[2,3-c]pyridyl)amino)-N-(4-((4-morpholinyl)methyl)phenyl)-1H-3-pyrazolecarboxamide [Compound I-44] | 75.91% | 54.94% | – | – | –
7 | Cc1csc2ncnc(Nc3c[nH]nc3C(=O)Nc3ccc(CN4CCN(C)CC4)cc3)c12 [Compound I-5, 4-(4-(5-methylthieno[2,3-d]pyrimidinyl)amino)-N-(4-((4-methyl-1-piperazinyl)methyl)phenyl)-1H-3-pyrazolecarboxamide] | 51.24% | 58.62% | – | – | –
8 | Cc1cc2ncnc(Nc3c[nH]nc3C(=O)Nc3ccc(CN4CCOCC4)cc3)c2[nH]1 [Compound I-20, 4-(4-(6-methyl-5H-pyrrolo[3,2-d]pyrimidinyl)amino)-N-(4-((4-morpholinyl)methyl)phenyl)-1H-3-pyrazolecarboxamide] | 62.25% | 60.72% | – | – | –
9 | O=C(Nc1ccc(CN2CCOCC2)cc1)c1n[nH]cc1Nc1ncnc2[nH]ccc12 [Compound I-12, 4-(4-(7H-pyrrolo[2,3-d]pyrimidinyl)amino)-N-(4-((4-morpholinyl)methyl)phenyl)-1H-3-pyrazolecarboxamide] | 66.39% | 49.44% | – | – | –
10 | O=C(Nc1ccc(CN2CCOCC2)cc1)c1n[nH]cc1Nc1ncnc2cc[nH]c12 [Compound I-18, 4-(4-(5H-pyrrolo[3,2-d]pyrimidinyl)amino)-N-(4-((4-morpholinyl)methyl)phenyl)-1H-3-pyrazolecarboxamide] | 64.99% | 53.66% | – | – | –
11 | Cc1sc2ncnc(Nc3c[nH]nc3C(=O)Nc3ccc(CN4CCOCC4)cc3)c2c1C [Compound I-8, 4-(4-(5,6-dimethylthieno[2,3-d]pyrimidinyl)amino)-N-(4-((4-morpholinyl)methyl)phenyl)-1H-3-pyrazolecarboxamide] | 54.65% | 48.49% | – | – | –

Further lines, results first:

Row | CDK2 inhibition % (1 × 10^−6 mol/L) [1] | Aurora A inhibition % (1 × 10^−6 mol/L) [2] | inhibition at 1 µM [1] | melting point | inhibition at 1 µM [2] | Molecule
12 | 38.28% | 67.45% | – | – | – | Cc1csc2c(Nc3c[nH]nc3C(=O)Nc3ccc(CN4CCOCC4)cc3)nccc12 [Compound I-32, 4-(7-(3-methylthieno[2,3-c]pyridyl)amino)-N-(4-((4-morpholinyl)methy)phenyl)-1H-3-pyrazolecarboxamide]
13 | 73.23% | 55.99% | – | – | – | Cc1cc2c(Nc3c[nH]nc3C(=O)Nc3ccc(CN4CCN(C)CC4)cc3)nccc2o1 [Compound I-35, 4-(4-(2-methylfuro[3,2-c]pyridyl)amino)-N-(4-((4-methyl-1-piperazinyl)methyl)phenyl)-1H-3-pyrazolecarboxamide]
14 | 60.11% | 63.21% | – | – | – | Cc1cc2ccnc(Nc3c[nH]nc3C(=O)Nc3ccc(CN4CCN(C)CC4)cc3)c2[nH]1 [Compound I-45, 4-(7-(2-methyl-1H-pyrrolo[2,3-c]pyridyl)amino)-N-(4-((4-methyl-1-piperazinyl)methyl)phenyl)-1H-3-pyrazolecarboxamide]
15 | 68.57% | 60.73% | – | – | – | Cc1cc2ccnc(Nc3c[nH]nc3C(=O)Nc3ccc(CN4CCOCC4)cc3)c2[nH]1 [Compound I-46, 4-(7-(2-methyl-1H-pyrrolo[2,3-c]pyridyl)amino)-N-(4-((4-morpholinyl)methyl)phenyl)-1H-3-pyrazolecarboxamide]
16 | – | – | 56.2% | 273 to 276 °C | 42.6% | CN1CCN(Cc2ccc(NC(=O)c3n[nH]cc3Nc3ccnc4occc34)cc2)CC1 [Compound I-41, 4-(4-furo[2,3-b]pyridylamino)-N-(4-((4-methyl-1-piperazinyl)methyl)phenyl)-1H-3-pyrazolecarboxamide]
17 | – | – | 64.8% | 268 to 272 °C | 51% | O=C(Nc1ccc(CN2CCOCC2)cc1)c1n[nH]cc1Nc1nccc2ccoc12 [Compound I-38, 4-(7-furo[2,3-c]pyridylamino)-N-(4-((4-morpholinyl)methyl)phenyl)-1H-3-pyrazolecarboxamide]
18 | – | – | 73.1% | 271 to 273 °C | 55.1% | O=C(Nc1ccc(CN2CCOCC2)cc1)c1n[nH]cc1Nc1nccc2ccsc12 [Compound I-30, 4-(7-thieno[2,3-c]pyridylamino)-N-(4-((4-morpholinyl)methyl)phenyl)-1H-3-pyrazolecarboxamide]
19 | 44.93% | 45.08% | – | – | – | CN1CCN(Cc2ccc(NC(=O)c3n[nH]cc3Nc3nccc4occc34)cc2)CC1 [Compound I-33, 4-(4-furo[3,2-c]pyridylamino)-N-(4-((4-methyl-1-piperazinyl)menthyl)phenyl)-1H-3-pyrazolecarboxamide]
20 | 45.34% | 70.27% | – | – | – | Cc1csc2c(Nc3c[nH]nc3C(=O)Nc3ccc(CN4CCN(C)CC4)cc3)nccc12 [Compound I-31, 4-(7-(3-methylthieno[2,3-c]pyridyl)amino)-N-(4-((4-methyl-1-piperazinyl)methyl)phenyl)-1H-3-pyrazolecarboxamide]
21 | – | – | 73.1% | 269 to 271 °C | 61.1% | O=C(Nc1ccc(CN2CCOCC2)cc1)c1n[nH]cc1Nc1nccc2sccc12 [Compound I-26, 4-(4-thieno[3,2-c]pyridylamino)-N-(4-((4-morpholinyl)methyl)phenyl)-1H-3-pyrazolecarboxamide]
22 | 76.09% | 55.02% | – | – | – | CN1CCN(Cc2ccc(NC(=O)c3n[nH]cc3Nc3nccc4cc[nH]c34)cc2)CC1 [Compound I-43, 4-(7-(1H-pyrrolo[2,3-c]pyridyl)amino)-N-(4-((4-methyl-1-piperazinyl)methyl)phenyl)-1H-3-pyrazolecarboxamide]
23 | 64.51% | 56.23% | – | – | – | Cc1cc2c(Nc3c[nH]nc3C(=O)Nc3ccc(CN4CCOCC4)cc3)nccc2o1 [Compound I-36, 4-(4-(2-methylfuro[3,2-c]pyridyl)amino)-N-(4-((4-morpholinyl)methyl)phenyl)-1H-3-pyrazolecarboxamide]
24 | 76.91% | 67.63% | – | – | – | Cc1cc2c(Nc3c[nH]nc3C(=O)Nc3ccc(CN4CCOCC4)cc3)nccc2s1 [Compound I-28, 4-(4-(2-methylthieno[3,2-c]pyridyl)amino)-N-(4-((4-morpholinyl)methyl)phenyl)-1H-3-pyrazolecarboxamide]
